Test results from patent publication US11690845B2, “Methods of administering elagolix” (priority 2020, dated 2023).
Read-outs that look alike come from different tables or passages of the source.

Columns and labels:
CYP3A = test: Substrate of / metabolism by CYP3A; type: in vitro ADME
[1] = Pharmacogenomics: elagolix plasma concentrations by SLCO1B1 521T>C genotype; type: in vivo, human; conditions: SLCO1B1 521 C/C genotype
From the text: Hepatic uptake of elagolix involves the OATP1B1 transporter protein. Higher plasma concentrations of elagolix have been observed in patients who have two reduced function alleles of the gene that encodes OATP1B1 (SLCO1B1 521T>C) (these patients are likely to have reduced hepatic uptake of elagolix; and thus, higher plasma elagolix concentrations). The frequency of this SLCO1B1 521 C/C genotype is generally less than […] in most racial/ethnic groups. Women with this genotype are expected to have approximately 2-fold higher elagolix mean concentrations compared to women with normal transporter function (i.e., SLCO1B1 521T/T genotype). Adverse effects of elagolix have not been fully evaluated in subjects who have two reduced function alleles of the gene that encodes OATP1B1 (SLCO1B1 521T>C). The above listed examples should not be deemed to limit the scope of the invention as claimed.

P-gp = P-gp (Homo sapiens, UniProt P08183); test: Substrate of P-gp; type: in vitro ADME
Chain of P-gp (P08183 whole entry): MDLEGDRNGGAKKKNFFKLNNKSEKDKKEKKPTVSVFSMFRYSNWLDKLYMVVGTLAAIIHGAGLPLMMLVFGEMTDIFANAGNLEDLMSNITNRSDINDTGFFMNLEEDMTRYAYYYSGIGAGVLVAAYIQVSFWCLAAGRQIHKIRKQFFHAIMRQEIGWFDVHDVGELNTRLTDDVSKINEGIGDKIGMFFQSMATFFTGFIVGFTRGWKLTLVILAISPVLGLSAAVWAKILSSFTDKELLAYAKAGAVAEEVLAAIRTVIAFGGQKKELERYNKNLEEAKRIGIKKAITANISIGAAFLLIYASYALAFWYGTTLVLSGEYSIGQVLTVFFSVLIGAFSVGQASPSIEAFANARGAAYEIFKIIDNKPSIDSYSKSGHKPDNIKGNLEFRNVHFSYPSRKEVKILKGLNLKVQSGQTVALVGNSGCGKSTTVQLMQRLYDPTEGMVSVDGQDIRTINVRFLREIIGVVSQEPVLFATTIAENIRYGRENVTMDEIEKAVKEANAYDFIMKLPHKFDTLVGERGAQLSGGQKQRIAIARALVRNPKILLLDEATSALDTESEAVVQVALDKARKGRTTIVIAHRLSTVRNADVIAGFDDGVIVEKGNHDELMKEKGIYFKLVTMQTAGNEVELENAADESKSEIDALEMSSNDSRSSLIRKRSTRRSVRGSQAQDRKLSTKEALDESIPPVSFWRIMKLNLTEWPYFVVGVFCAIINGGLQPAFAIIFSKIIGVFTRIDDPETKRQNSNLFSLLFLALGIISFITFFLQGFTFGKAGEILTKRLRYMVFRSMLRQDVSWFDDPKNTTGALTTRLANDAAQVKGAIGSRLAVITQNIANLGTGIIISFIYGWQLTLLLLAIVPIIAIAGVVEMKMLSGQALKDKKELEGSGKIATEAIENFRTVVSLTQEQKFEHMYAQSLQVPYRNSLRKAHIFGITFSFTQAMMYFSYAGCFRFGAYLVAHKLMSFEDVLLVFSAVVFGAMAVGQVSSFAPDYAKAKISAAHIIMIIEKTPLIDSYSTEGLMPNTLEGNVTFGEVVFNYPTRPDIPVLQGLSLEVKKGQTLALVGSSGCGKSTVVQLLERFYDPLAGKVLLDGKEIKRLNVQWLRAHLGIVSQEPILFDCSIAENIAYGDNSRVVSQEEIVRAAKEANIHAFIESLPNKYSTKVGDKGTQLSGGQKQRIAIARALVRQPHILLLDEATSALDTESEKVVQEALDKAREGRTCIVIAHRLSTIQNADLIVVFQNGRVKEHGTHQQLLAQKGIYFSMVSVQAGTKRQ

OATP1B1 = target: T1, OATP1B1 (Homo sapiens, UniProt Q9Y6L6); test: Substrate of OATP1B1; type: in vitro ADME
T1 sequence (Q9Y6L6 1-691): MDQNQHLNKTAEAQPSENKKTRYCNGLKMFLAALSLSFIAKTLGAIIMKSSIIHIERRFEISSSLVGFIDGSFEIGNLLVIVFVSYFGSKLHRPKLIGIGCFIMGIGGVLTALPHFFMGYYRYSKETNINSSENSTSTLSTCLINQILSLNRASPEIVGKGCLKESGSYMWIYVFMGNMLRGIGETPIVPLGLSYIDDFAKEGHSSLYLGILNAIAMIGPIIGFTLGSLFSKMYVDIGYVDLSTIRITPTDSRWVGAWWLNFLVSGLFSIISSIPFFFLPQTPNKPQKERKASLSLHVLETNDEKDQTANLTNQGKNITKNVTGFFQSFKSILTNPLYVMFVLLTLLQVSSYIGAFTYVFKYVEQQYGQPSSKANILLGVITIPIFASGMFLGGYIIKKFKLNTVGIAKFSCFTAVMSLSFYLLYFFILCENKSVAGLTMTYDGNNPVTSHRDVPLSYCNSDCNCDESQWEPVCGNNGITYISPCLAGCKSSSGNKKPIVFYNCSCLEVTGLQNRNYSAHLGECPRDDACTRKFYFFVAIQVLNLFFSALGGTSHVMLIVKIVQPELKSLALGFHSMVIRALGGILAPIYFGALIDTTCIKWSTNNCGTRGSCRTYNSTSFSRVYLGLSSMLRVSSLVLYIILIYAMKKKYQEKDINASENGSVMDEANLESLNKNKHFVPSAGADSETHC

pregnant rats = test: Embryofetal development study in the rat; type: in vivo
Description: (§2) Embryofetal development studies were conducted in the rat and rabbit. Elagolix was administered by oral gavage to pregnant rats (25 animals/dose) at doses of 0, 300, 600 and 1200 mg/kg/day and to rabbits (20 animals/dose) at doses of 0, 100, 150, and 200 mg/kg/day, during the period of organogenesis (gestation day 6-17 in the rat and gestation day 7-20 in the rabbit).

CYP3A4 = test: In vitro studies: CYP3A4 (CYP3A) induction; type: in vitro ADME; conditions: in vitro studies (CYP3A4; b159: CYP3A)
CYP2B6 = test: In vitro studies: CYP2B6 induction; type: in vitro ADME
rabbits = test: Embryofetal development study in the rabbit; type: in vivo
Description: as §2

[2] = Drug interaction studies: pharmacokinetics of elagolix in the presence of co-administered drugs; type: in vivo, human; conditions: for Ratio (90% CI) AUC of elagolix, co-administration vs elagolix alone / Ratio (90% CI) Cmax of elagolix, co-administration vs elagolix alone: elagolix 150 mg single dose
Description: Drug interaction studies were performed with elagolix and other drugs likely to be co-administered and with drugs commonly used as probes for pharmacokinetic interactions.

[3] = target: T2, rat gonadotropin-releasing hormone (GnRH) receptor (Rattus norvegicus, UniProt P30969); test: Binding to rat versus human GnRH receptor; conditions: rat vs human GnRH receptor
T2 sequence (P30969 1-327): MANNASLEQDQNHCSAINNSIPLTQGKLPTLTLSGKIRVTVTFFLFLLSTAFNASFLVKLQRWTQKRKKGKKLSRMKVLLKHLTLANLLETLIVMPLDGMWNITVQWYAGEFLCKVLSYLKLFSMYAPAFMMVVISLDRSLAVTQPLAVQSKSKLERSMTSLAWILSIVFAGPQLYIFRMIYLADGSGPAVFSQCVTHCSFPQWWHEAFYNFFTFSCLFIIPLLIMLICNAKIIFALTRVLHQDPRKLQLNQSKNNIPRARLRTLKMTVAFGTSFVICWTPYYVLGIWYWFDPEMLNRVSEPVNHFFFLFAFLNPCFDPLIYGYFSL

CYP2C19 = CYP2C19 (Homo sapiens, UniProt P33261); test: In vitro studies: CYP2C19 inhibition; type: in vitro ADME
Chain of CYP2C19 (P33261 whole entry): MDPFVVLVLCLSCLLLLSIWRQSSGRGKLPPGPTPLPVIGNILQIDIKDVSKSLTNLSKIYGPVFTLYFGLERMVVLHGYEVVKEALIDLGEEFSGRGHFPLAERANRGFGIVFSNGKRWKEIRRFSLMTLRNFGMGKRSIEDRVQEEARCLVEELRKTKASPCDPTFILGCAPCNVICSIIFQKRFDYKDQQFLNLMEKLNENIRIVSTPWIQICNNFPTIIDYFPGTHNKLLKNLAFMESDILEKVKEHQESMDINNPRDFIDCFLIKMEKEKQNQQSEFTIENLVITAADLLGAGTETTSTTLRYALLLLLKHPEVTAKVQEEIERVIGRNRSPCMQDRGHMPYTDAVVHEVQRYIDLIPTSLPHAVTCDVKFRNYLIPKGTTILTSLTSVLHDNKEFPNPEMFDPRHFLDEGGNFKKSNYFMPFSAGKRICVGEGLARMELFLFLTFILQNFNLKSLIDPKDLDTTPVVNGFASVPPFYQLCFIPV

[4] = Pre- and postnatal development study in rats; type: in vivo, rat; conditions: female, rat, plasma, oral, rats, read-out: maternal plasma concentration
Description: (§1) In a pre- and postnatal development study in rats, elagolix was given in the diet to achieve doses of 0, 100 and 300 mg/kg/day (25 per dose group) from gestation day 6 to lactation day 20. […] Pup survival was decreased from birth to postnatal day 4. […] Smaller body size and effect on startle response were associated with lower pup weights at 300 mg/kg/day. Post-weaning growth, development and behavioral endpoints were unaffected.

rats = test: Pre- and postnatal development study in rats; type: in vivo, rat; conditions: for maternal plasma concentration relative to maximal elagolix concentration (Cmax) in humans at the MRHD: rats
Description: as §1

P-glycoprotein (P-gp) = P-glycoprotein (P-gp) (Homo sapiens, UniProt P08183); test: Inhibition of efflux transporter P-gp; type: in vitro ADME
Chain of P-glycoprotein (P-gp) (P08183 whole entry): as the sequence (P08183 whole entry) above

[5] = rabbits, highest, maternally toxic dose
[6] = Ketoconazole 400 mg once daily, N 11
[7] = Rifampin 600 mg single dose, N 12
[8] = lactation day 21, 100 mg/kg/day
[9] = lactation day 21, 300 mg/kg/day

SMILES: COc1cccc(-c2c(C)n(Cc3c(F)cccc3C(F)(F)F)c(=O)n(C[C@H](NCCCC(=O)O)c3ccccc3)c2=O)c1F [elagolix, 4-((R)-2-[5-(2-fluoro-3-methoxy-phenyl)-3-(2-fluoro-6-trifluoromethyl-benzyl)-4-methyl-2,6-dioxo-3,6-dihydro-2H-pyrimidin-1-yl]-1-phenyl-ethylamino)-butyric acid]
- substrate of CYP3A (CYP3A): substrate
- plasma concentrations in patients with two reduced function alleles of SLCO1B1 521T>C [1]: Higher
- elagolix mean concentrations vs women with normal transporter function (SLCO1B1 521T/T) ([1]; expected): approximately 2 fold higher
- substrate of P-gp (P-gp): substrate
- substrate of OATP1B1 (OATP1B1): substrate
- dose with (increased) postimplantation loss, multiple of MRHD (pregnant rats; pregnant rats, oral, organogenesis, mid dose group, based on AUC): 12 times the MRHD
- fetal malformations (pregnant rats; rat, any dose level tested): No fetal malformations
- maternal deaths (pregnant rats; rats, 300, 600 and 1200 mg/kg/day): six deaths
- CYP3A4 / CYP3A induction (CYP3A4): weak to moderate inducer
- CYP2B6 induction (CYP2B6): weak to moderate inducer
- fetal malformations (rabbits; rabbit, any dose level tested): No fetal malformations
- dose with spontaneous abortion and total litter loss, multiple of MRHD (rabbits; rabbits, oral, organogenesis, highest, maternally toxic dose, based on AUC): 7 times the MRHD
- total litter loss (rabbits; rabbits, 150 mg/kg/day, non-maternally toxic): single total litter loss
- spontaneous abortions (rabbits; [5]): three spontaneous abortions
- total litter loss (rabbits; [5]): single total litter loss
- dose with total litter loss, multiple of MRHD (rabbits; rabbits, lower non-maternally toxic dose of 150 mg/kg/day): 4 times the MRHD
- Ratio (90% CI) AUC of elagolix, co-administration vs elagolix alone [2, 6]: 2.20
- Ratio (90% CI) Cmax of elagolix, co-administration vs elagolix alone [2, 6]: 1.77
- Ratio (90% CI) AUC of elagolix, co-administration vs elagolix alone ([2]; Rifampin 600 mg once daily): 1.65
- Ratio (90% CI) Cmax of elagolix, co-administration vs elagolix alone ([2]; Rifampin 600 mg once daily): 2.00
- Ratio (90% CI) AUC of elagolix, co-administration vs elagolix alone [2, 7]: 5.58
- Ratio (90% CI) Cmax of elagolix, co-administration vs elagolix alone [2, 7]: 4.37
- plasma concentrations of elagolix with concomitant rifampin ([2]; concomitant use of rifampin): increased
- changes in elagolix exposures ([2]; elagolix 300 mg twice daily with rosuvastatin (20 mg once daily), sertraline (25 mg once daily) or fluconazole (200 mg single dose)): No clinically significant changes
- binding to rat GnRH receptor relative to human GnRH receptor [3]: ~1000 fold less
- CYP2C19 inhibition (CYP2C19): weak inhibitor
- concentration at 21 lactation day [4, 8]: 47 ng/mL
- concentration at 21 lactation day [4, 9]: 125 ng/mL
- pup birth weights (rats; 300 mg/kg/day): lower birth weights
- dams failing to deliver (rats; highest dose (300 mg/kg/day)): one failed to deliver
- dams with total litter loss (rats; highest dose (300 mg/kg/day)): two dams
- pup survival (rats; highest dose, birth to postnatal day 4): decreased
- post-weaning growth, development and behavioral endpoints (rats; rat, in vivo): unaffected
- maternal plasma concentration relative to maximal elagolix concentration (Cmax) in humans at the MRHD (rats; [8]): 0.04 fold
- maternal plasma concentration relative to maximal elagolix concentration (Cmax) in humans at the MRHD (rats; [9]): 0.1 fold
- P-gp inhibition (P-glycoprotein (P-gp)): inhibitor
